In PubChem BioAssay (NCI):
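Test compounds were applied to cells in 96-well plates for 48 hours at 5 doses. The concentration for 50% growth inhibition is given as GI50. The concentration for full growth arrest is given as TGI.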

What was measured:
Test in all cases: inhibition of tumour cell growth, NCI panel, 48 h
A498 renal = test system: A498 renal
HCT-15 colon = test system: HCT-15 colon
HOP-62 NSCLC = test system: HOP-62 NSCLC
HT29 colon = test system: HT29 colon
IGROV1 ovarian = test system: IGROV1 ovarian
K-562 leukemia = test system: K-562 leukemia
MOLT-4 leukemia = test system: MOLT-4 leukemia
OVCAR-3 ovarian = test system: OVCAR-3 ovarian
SF-295 CNS = test system: SF-295 CNS
SF-539 CNS = test system: SF-539 CNS
SK-MEL-2 melanoma = test system: SK-MEL-2 melanoma
SNB-75 CNS = test system: SNB-75 CNS
SR leukemia = test system: SR leukemia
UACC-257 melanoma = test system: UACC-257 melanoma
UACC-62 melanoma = test system: UACC-62 melanoma
UO-31 renal = test system: UO-31 renal
T-47D breast = test system: T-47D breast

| SMILES | TGI (A498 renal) [µM] | TGI (HCT-15 colon) [µM] | TGI (HOP-62 NSCLC) [µM] | TGI (HT29 colon) [µM] | TGI (IGROV1 ovarian) [µM] | TGI (K-562 leukemia) [µM] | TGI (MOLT-4 leukemia) [µM] | TGI (OVCAR-3 ovarian) [µM] | TGI (SF-295 CNS) [µM] | TGI (SF-539 CNS) [µM] | TGI (SK-MEL-2 melanoma) [µM] | TGI (SNB-75 CNS) [µM] | TGI (SR leukemia) [µM] | TGI (UACC-257 melanoma) [µM] | TGI (UACC-62 melanoma) [µM] | TGI (UO-31 renal) [µM] | TGI (T-47D breast) [µM] | GI50 (OVCAR-3 ovarian) [µM] | GI50 (SF-295 CNS) [µM] |
| --- | --- | --- | --- | --- | --- | --- | --- | --- | --- | --- | --- | --- | --- | --- | --- | --- | --- | --- | --- |
| CC1OC(n2ccc3ccc([N+](=O)[O-])cc32)C(O)C(O)C1O (stereo unspecified) | > 100 | > 100 | > 100 | > 100 | > 100 | > 100 | > 100 | > 100 | > 100 | > 100 | > 100 | > 100 | > 100 | > 100 | > 100 | > 100 |  |  |  |
| COc1ccc(/C=C2\C(=O)Nc3ccccc32)cc1OC | > 100 | > 100 | > 100 | > 100 | > 100 | > 100 | > 100 |  | > 100 | > 100 | > 100 | 81.3 |  | > 100 | > 100 | > 100 |  |  |  |
| O=C(CSc1nc(-c2ccccc2)c(-c2ccccc2)[nH]1)N/N=C/c1ccc([N+](=O)[O-])cc1 | 29.2 | 28.1 | 33.7 | 35.8 | 33.8 |  | 48.5 | 30 | 36.1 | 29.9 | 26.9 | 47.8 | > 100 | 36 |  | 29.5 |  |  |  |
| CC(Cc1ccc(O)cn1)(NC(=O)c1ccccc1)C(=O)O (stereo unspecified) |  | > 100 | > 100 | > 100 | > 100 | > 100 | > 100 | > 100 | > 100 | > 100 | > 100 | > 100 | > 100 | > 100 | > 100 | > 100 |  |  |  |
| COc1ccc(-c2nc(SCC(=O)N/N=C/c3ccc([N+](=O)[O-])cc3)[nH]c2-c2ccc(OC)cc2)cc1 | 55.4 | > 85.1 | > 100 | 26.9 | 74.8 | > 100 | 42.1 | > 64.5 | > 69 | 30.8 | 20.5 | > 63.3 |  | 49.4 | 20.5 | > 100 | > 100 |  |  |
| Nc1c2ccccc2nc2nccnc12 | > 100 | > 100 | > 100 | > 100 | > 100 | > 100 | > 100 | > 100 | > 100 | > 100 | > 100 | > 100 | > 100 | > 100 | > 100 | > 100 |  |  |  |
| Cc1c(/C=N/NC(=S)Nc2ccc([N+](=O)[O-])cc2)c(=O)n(-c2ccccc2)n1C | 24 | 49.4 | 23.8 | 25.5 | 25.9 | > 100 | > 100 |  | 22.7 | 30 | 30.5 | 26.3 | > 100 | > 100 | 33.7 | 49.2 |  |  |  |
| N#CC(NNC(=O)Cc1ccccc1)c1ccc(O)cc1 (stereo unspecified) |  | > 100 | > 100 | > 100 | > 100 | > 100 | > 100 |  | > 100 | > 100 | > 100 | 97.5 | > 100 | > 100 | > 100 | > 100 |  |  |  |
| CC1(C)OC[C@@H]([C@H](C=O)OCc2ccccc2)O1 | > 100 | > 100 | > 100 | > 100 | > 100 | > 100 | > 100 | > 100 | > 100 |  | > 100 | > 100 | > 100 | > 100 | > 100 | > 100 |  |  |  |
| COc1cc2c(OC)c3cc(C)oc(=O)c3c(O)c2c(O)c1-c1c(OC)cc2c(OC)c3cc(C)oc(=O)c3c(O)c2c1O | 51 | 39.4 | 30.1 | 55.3 | 31.1 | 34.3 | 31.8 | 33.9 | 39.7 | 35.7 | 35.8 | > 100 |  | 44.1 | 41 | 35.9 | > 100 |  |  |
| COc1cc(/C=C2\N=C(c3ccccc3)N(c3ccc4c(c3)Sc3cc(N5C(=O)/C(=C/c6cc(OC)c(OC)c(OC)c6)N=C5c5ccccc5)ccc3N4)C2=O)cc(OC)c1OC | 43.1 | > 100 | 60.2 | > 100 | 32 | 48.4 | > 100 | 40.7 | 47.9 |  | 36.5 | 52.5 |  | 31.3 | 31.4 | > 100 | 70.2 |  |  |
| CC1=N/C(=C\c2ccc(N)cc2)C(=O)N1Nc1nnc(NN2C(=O)/C(=C/c3ccc(N)cc3)N=C2C)c2ccccc12 | > 100 | > 100 | 64.3 | > 100 | > 100 | > 100 | > 100 |  | 69.3 | > 100 |  | > 100 | > 100 | > 100 | > 100 |  |  |  |  |
| Brc1ccc(N=C/C=C(\Nc2ccc(Br)cc2)C23CC4CC(CC(C4)C2)C3)cc1 | 79.7 | > 46.6 | 43.6 | > 61.6 | 28 | > 67 | > 72.8 | 28.9 | > 92 | 51.8 | 28.3 | 35.5 |  | 36.8 | 15 | 34.6 | 43.9 |  |  |
| CCOC(=O)c1sc2c(c1OC(=O)c1ccc(Cl)cc1Cl)c(=O)n(-c1ccccc1)c(=S)n2-c1ccccc1 | 46.1 | 38.6 | > 100 | > 77.5 | > 40.9 | > 100 | 14.5 | > 100 | > 100 | > 100 | 18.6 | > 100 |  | > 100 | > 80.2 | > 100 | > 100 |  |  |
| CC(=O)c1cc2sc3ccccc3c2[nH]1 | > 100 | > 100 | > 100 | > 100 |  | > 100 | > 100 | > 100 | > 100 | > 100 | > 100 |  |  |  | > 100 | > 100 | > 100 |  |  |
| CCCCCCCCOP(=O)(O)OP(=O)(O)OCC1OC(n2ccc(N)nc2=O)C(O)C1O (stereo unspecified) | > 100 | > 100 | > 100 | > 100 | > 100 | > 100 | > 100 | > 100 | > 100 | > 100 | > 100 | > 100 |  | > 100 | > 100 | > 100 | > 100 |  |  |
| CCOC(=O)C1C(c2ccccc2)C2(C#N)C(=N)OC1(C)C2(C#N)C#N (stereo unspecified) | 97.6 | > 100 |  | 29.4 | 37.8 | 48.8 | 56 |  | > 100 | 37.4 | 59.6 | 34.7 |  | 54.2 | 82.6 | 31.4 | > 100 |  |  |
| O=C1CCN(CCC(F)(F)C(F)(F)C(F)(F)C(F)(F)F)C(=S)N1 |  | > 100 | > 100 | > 100 | > 100 | > 100 | > 100 | > 100 | > 100 | > 100 | > 100 | > 100 | > 100 |  | > 100 | > 100 |  |  |  |
| C=CC[C@H](O)[C@@](NC(=O)OCc1ccccc1)(Sc1ccc(C)cc1)C(F)(F)F | > 100 | > 100 | 78.1 | > 100 | 24 | > 100 | 87.2 | 48.5 | 66.7 | 29.7 | 75.8 |  | 60.9 | 74.1 | > 100 | 55.4 |  |  |  |
| O=C(OC1C#CCSCC#C/C=C\1)c1cnc2ccccc2n1 (stereo unspecified) | > 100 | > 100 | > 100 | > 100 | > 100 | 65.4 |  | > 100 | > 100 | > 100 | > 100 | > 100 | 53.1 | > 100 | > 100 | > 100 |  |  |  |
| Cc1ccc(NC(=O)C23CC4CC(CC(C4)C2)C3)c(C(=O)NNC(=O)c2ccc(Cl)cc2)c1 |  | 35.7 | 49.6 | 72.9 | 18.2 | 95 | 62.3 | 66.9 | 66.5 | 49.5 |  |  | 30.1 | 9.53 | 53.2 | 37 | > 100 |  |  |
| CC(C)(Cl)C(Br)CCC(=CCBr)CBr (mixture of isomers) | 18.3 | 3.75 | 11.7 | 4.65 | 5.56 | 4.18 | 2.88 | 6.27 | 11 | 4.93 | 22.9 | 7.31 |  | 14.2 | 11.5 | 3.42 | 17.3 |  |  |
| CCCc1c(O)c2ccccc2[nH]c1=O | > 100 | > 100 | > 100 | > 100 | > 100 | > 100 | > 100 | > 100 | > 100 | > 100 |  | > 100 | > 100 | > 100 |  | > 100 |  |  |  |
| NC(=S)Nc1c(S(N)(=O)=O)cc(S(N)(=O)=O)c(Cl)c1Cl |  | > 100 | > 100 | > 100 | > 100 | > 100 | > 100 | > 100 | > 100 | > 100 | > 100 | > 100 |  | > 100 | > 100 | > 100 |  |  |  |
| CNc1cccc(-c2cc(=O)c3cc4c(cc3[nH]2)OCO4)c1 |  | 3.66 |  | 2.71 | > 100 | > 19 | > 20.9 |  | > 22.9 | 0.573 | > 44.5 |  | > 100 | > 100 | > 100 | > 50.8 | > 100 |  |  |
| N=C(N)SCCSC(=N)N | > 100 | > 100 | > 100 | > 100 | > 100 | > 100 | > 100 | > 100 | > 100 |  |  | > 100 |  | > 100 | > 100 | > 100 | > 100 |  |  |
| CCc1nc2c(n1CC)C(=O)c1ccccc1C2=O |  | > 100 | > 100 | 63.9 | > 100 | > 100 | > 100 | 53.9 | > 100 | > 100 |  | > 100 | > 100 | 51.4 | > 100 |  | 57 |  |  |
| O=c1[nH]ncc2[nH]c(-c3ccccc3)cc12 |  | > 100 | > 100 | > 100 | > 100 | > 100 | > 100 | > 100 | > 100 |  | 71 | 77 | > 100 | > 100 | > 100 | > 100 | > 100 |  |  |
| N#Cc1nc(/C=C/c2cccs2)oc1N | > 100 | > 100 | > 100 | > 100 | > 100 | > 100 | > 100 |  |  |  | > 100 | > 100 | 74 | > 100 | > 100 | 63.6 |  |  |  |
| COc1ccc(-c2cc(=O)c3cc4c(cc3[nH]2)OCO4)c(OC)c1 |  | > 100 | > 100 | > 100 | > 100 | > 100 | > 100 | > 100 | > 100 | > 100 | > 100 | 31.2 | 74.2 |  | > 100 | > 100 |  | > 100 | 46.2 |
